Measurements taken from US9776972B2, “Pyrazole derivatives as arginine methyltransferase inhibitors and uses thereof” (priority 2013, dated 2017).
Where two headings read alike, the source gives them in different places.

Legend:
[1] = tested on: mono-methyl arginine in RKO cells; assay: RKO Methylation Assay, In Cell Western (ICW) for mono-methyl arginine and DNA content; type: cell-based; details: Homo sapiens, RKO, 72 h
Procedure, shortened: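 After fixation, mono-methyl arginine and DNA (DRAQ5) were measured by infrared In-Cell Western imaging at 700/800 nm in RKO cells exposed to compounds for 72 hours. Percent activation used DMSO wells as minimum and 20 μM reference compound as maximum; EC30 curves fitted on triplicate wells.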

[2] = target: T1, human PRMT1 (Homo sapiens, UniProt Q99873); assay: PRMT1 Biochemical Assay (3H-SAM Flashplate, peptide substrate); details: single experiment or average of multiple experiments
T1 construct: GST-tagged PRMT1; made in house; host or cells: High Five insect cells (baculovirus)
Procedure, shortened: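 GST-tagged PRMT1 from baculovirus-infected cells, preincubated with compounds 30 min at room temperature in 20 mM Bicine pH 7.6, 1 mM TCEP, 0.005% BSG, 0.002% Tween 20. Reaction started with ³H-SAM plus biotinylated peptide, stopped with 300 µM cold SAM.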

[3] = RKO cells, 72 hours, mono-methyl arginine, percent activation, single experiment or average of multiple experiments, read-out: EC30 (In Cell Western data, Numerical)
[4] = read-out: EC30 (In Cell Western data, Numerical, μM)

T1 sequence (Q99873 with tags, fused parts or gaps): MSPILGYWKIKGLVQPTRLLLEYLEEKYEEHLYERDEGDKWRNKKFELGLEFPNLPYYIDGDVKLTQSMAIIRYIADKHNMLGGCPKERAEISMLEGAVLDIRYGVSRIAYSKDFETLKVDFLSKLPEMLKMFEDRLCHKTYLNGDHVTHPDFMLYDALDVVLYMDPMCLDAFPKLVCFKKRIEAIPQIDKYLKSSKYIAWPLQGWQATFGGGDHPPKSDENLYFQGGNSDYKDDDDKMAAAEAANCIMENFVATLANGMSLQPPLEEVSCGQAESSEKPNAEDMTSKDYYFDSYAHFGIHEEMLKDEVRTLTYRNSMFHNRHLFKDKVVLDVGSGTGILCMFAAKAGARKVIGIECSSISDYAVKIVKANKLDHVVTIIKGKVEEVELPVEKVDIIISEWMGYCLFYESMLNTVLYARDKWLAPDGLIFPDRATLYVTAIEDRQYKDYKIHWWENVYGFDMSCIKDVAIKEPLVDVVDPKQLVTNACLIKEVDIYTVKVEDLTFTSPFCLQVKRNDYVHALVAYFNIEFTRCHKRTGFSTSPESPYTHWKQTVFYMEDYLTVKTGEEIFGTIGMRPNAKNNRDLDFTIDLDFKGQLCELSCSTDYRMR

SMILES | EC30 [1, 3] | IC50 [2] | EC30 [1, 4]
CNCCN(C)Cc1cn(C2CC2)nc1-c1ccc(F)cc1 [Compound 13] | > 20 µM | 1500 nM | –
CNCCN(C)Cc1cnn(C2CC2)c1-c1ccc(F)cc1 [Compound 14] | 3.35 µM | 123 nM | –
CNCCN(C)Cc1cn(C(C)C)nc1-c1ccc(F)cc1 [Compound 15] | > 20 µM | 4380 nM | –
CNCCN(C)Cc1cnn(C(C)C)c1-c1ccc(F)cc1 [Compound 16] | – | 2070 nM | > 20 µM
CNCCN(C)Cc1cn[nH]c1-c1ccc(C#N)cc1 [Compound 17] | – | 13.8 nM | > 20 µM
CNCCN(C)Cc1cn[nH]c1-c1cc(F)cc(F)c1 [Compound 18] | – | 36.2 nM | –
CN(CCN)Cc1n[nH]cc1-c1ccc(C2CCOCC2)cc1 [Compound 145] | 1.95 µM | 20.1 nM | –
COc1ccc(-c2n[nH]cc2CN(C)CCN)c(Cl)c1 [Compound 146] | 7.16 µM | 46.3 nM | –
CN(CCN)Cc1c[nH]nc1-c1cc(C#N)ccc1Cl [Compound 147] | > 20 µM | 2860 nM | –
CN(CCN)Cc1c[nH]nc1-c1ccc(C(F)(F)F)cc1F [Compound 148] | 7.3 µM | 121 nM | –
CN(CCN)Cc1c[nH]nc1-c1cccc(N(C)C)c1 [Compound 149] | 4.32 µM | 61 nM | –
CCOC(=O)c1cccc(-c2n[nH]cc2CN(C)CCN)c1 [Compound 150] | 6.66 µM | 71.5 nM | –
COc1cc(F)ccc1-c1n[nH]cc1CN(C)CCN [Compound 151] | 9.73 µM | 122 nM | –
Cc1cc(F)ccc1-c1n[nH]cc1CN(C)CCN [Compound 152] | 5.78 µM | 47.2 nM | –
COc1ccc(-c2n[nH]cc2CN(C)CCN)cc1 [Compound 153] | 1.39 µM | 21.8 nM | –
COc1ccc(-c2n[nH]cc2CN(C)CCN)c(C(F)(F)F)c1 [Compound 154] | > 20 µM | 660 nM | –
COc1ccc(-c2n[nH]cc2CN(C)CCN)c(C)c1 [Compound 155] | 10.6 µM | 59.9 nM | –
CN(CCN)Cc1c[nH]nc1-c1cc(Cl)ccc1F [Compound 156] | 9.56 µM | 243 nM | –
COc1ccc(Cl)cc1-c1n[nH]cc1CN(C)CCN [Compound 157] | > 20 µM | 1540 nM | –
Cc1ccc(C#N)cc1-c1n[nH]cc1CN(C)CCN [Compound 158] | > 20 µM | 2330 nM | –
Cc1ccc(F)cc1-c1n[nH]cc1CN(C)CCN [Compound 159] | 8.56 µM | 71.9 nM | –

SMILES | EC30 [1, 3] | IC50 [2] | EC30 [1, 4]
COc1ccc(F)cc1-c1n[nH]cc1CN(C)CCN [Compound 160] | 17.7 µM | 167 nM | –
Cc1ccccc1-c1n[nH]cc1CN(C)CCN [Compound 161] | 14.9 µM | 187 nM | –
Cc1ccc(-c2n[nH]cc2CN(C)CCN)cc1 [Compound 162] | 1.34 µM | 17 nM | –
CCN(C)C(=O)c1ccc(-c2n[nH]cc2CN(C)CCN)cc1 [Compound 163] | > 20 µM | 115 nM | –
CC(C)CN(C)C(=O)c1ccc(-c2n[nH]cc2CN(C)CCN)cc1 [Compound 164] | 18.5 µM | 107 nM | –
CCOc1ccc(-c2n[nH]cc2CN(C)CCN)cc1 [Compound 166] | 0.434 µM | 7.27 nM | –
COCCOc1ccc(-c2n[nH]cc2CN(C)CCN)cc1 [Compound 167] | 0.845 µM | 9.28 nM | –
Cc1[nH]nc(-c2ccc(F)cc2)c1CN(C)CCN [Compound 169] | > 20 µM | 307 nM | –
CC(C)Cc1ccc(-c2c[nH]nc2CN(C)CCN)cc1 [Compound 170] | 1.39 µM | 11.4 nM | –
NCCN(CCO)Cc1c[nH]nc1-c1ccc(F)cc1 [Compound 171] | > 20 µM | 929 nM | –
CN(CCN)Cc1c[nH]nc1-c1ccc(OCCN2CCOCC2)cc1 [Compound 172] | > 20 µM | 227 nM | –
CN(CCN)Cc1c[nH]nc1-c1ccc2c(c1)NC(=O)CO2 [Compound 173] | > 20 µM | 167 nM | –
CNCCN(C)Cc1c[nH]nc1-c1ccc(C(F)(F)F)cc1 [Compound 174] | 0.26 µM | 11.9 nM | –
CNCCN(C)Cc1c[nH]nc1-c1ccc(OC2CCOCC2)cc1 [Compound 175] | 0.174 µM | 10.5 nM | –
CC(C)Oc1ccc(-c2nn(C)cc2CN(C)CCN)cc1 [Compound 176] | 0.882 µM | 11.6 nM | –
CC(C)Oc1ccc(-c2c(CN(C)CCN)cnn2C)cc1 [Compound 177] | 0.295 µM | 10 nM | –
CN(CCN)Cc1c[nH]nc1-c1ccc(OC2CCOCC2)cc1 [Compound 178] | 0.954 µM | 8.28 nM | –
COCCCOc1ccc(-c2n[nH]cc2CN(C)CCN)cc1 [Compound 179] | 0.03 µM | 17.3 nM | –
CNCCN(C)Cc1c[nH]nc1-c1ccc(OC(C)C)c(F)c1 [Compound 181] | 0.046 µM | 4.96 nM | –
CNCCN(C)Cc1c[nH]nc1-c1ccc(Cl)c(F)c1 [Compound 182] | 0.179 µM | 4.75 nM | –
CN(CCN(C)C1CC1)Cc1c[nH]nc1-c1ccc(C#N)cc1 [Compound 184] | 2.41 µM | 1600 nM | –

SMILES | EC30 [1, 3] | IC50 [2] | EC30 [1, 4]
CN(CCN1CCC1)Cc1c[nH]nc1-c1ccc(C#N)cc1 [Compound 185] | > 20 µM | 1120 nM | –
CC(C)Oc1cccc(-c2n[nH]cc2CN(C)CCN)c1 [Compound 187] | 7.07 µM | 146 nM | –
CC(C)Oc1cc(-c2n[nH]cc2CN(C)CCN)ccc1F [Compound 188] | 12.3 µM | 163 nM | –
CCC(=O)N1CCN(c2ccc(-c3n[nH]cc3CN(C)CCN)cc2)CC1 [Compound 189] | > 20 µM | 475 nM | –
CC(C)CN1C(=O)COc2ccc(-c3n[nH]cc3CN(C)CCN)cc21 [Compound 191] | > 20 µM | 655 nM | –
CN(CCN)Cc1c[nH]nc1-c1ccc2c(c1)OCC(=O)N2C [Compound 192] | > 20 µM | 121 nM | –
CC(C)CN1C(=O)COc2cc(-c3n[nH]cc3CN(C)CCN)ccc21 [Compound 193] | 9.72 µM | 63.4 nM | –
CN(CCN)Cc1c[nH]nc1-c1ccc(OCCO)cc1 [Compound 194] | 17 µM | 14.2 nM | –
CN(CCN)Cc1c[nH]nc1-c1ccc(OCCCO)cc1 [Compound 195] | 7.18 µM | 11.4 nM | –
CN(CCN)Cc1c[nH]nc1-c1ccc2c(c1)N(C)C(=O)CO2 [Compound 196] | > 20 µM | 210 nM | –
CCNC(=O)c1cccc(-c2n[nH]cc2CN(C)CCN)c1 [Compound 197] | > 20 µM | 678 nM | –
CCN(C)C(=O)c1cccc(-c2n[nH]cc2CN(C)CCN)c1 [Compound 198] | > 20 µM | 2170 nM | –
Cc1cc(-c2n[nH]cc2CN(C)CCN)cc(C)c1OC(C)C [Compound 199, N^1-((3-(4-isopropoxy-3,5-dimethylphenyl)-1H-pyrazol-4-yl)methyl)-N^1-methylethane-1,2-diamine] | 2.82 µM | 15.1 nM | –
CN(CCN)Cc1c[nH]nc1-c1ccc(Oc2ccccc2)c(C#N)c1 [Compound 202] | 0.941 µM | 4.27 nM | –
CN(CCN)Cc1n[nH]cc1-c1ccc(Oc2ccccc2)cc1 [Compound 203] | 1.72 µM | 4.28 nM | –
CNCCN(C)Cc1n[nH]cc1-c1ccc(Oc2ccccc2)cc1 [Compound 204] | 0.801 µM | 3.15 nM | –
CN(CCN)Cc1c[nH]nc1-c1ccc(Oc2cccc(F)c2)cc1 [Compound 205] | 1.69 µM | 2.44 nM | –
CNCCN(C)Cc1cn(C)nc1-c1ccc(OC(C)C)c(Cl)c1 [Compound 206] | – | 7.07 nM | 1.16 µM
CNCCN(C)Cc1cn(C)nc1-c1ccc(Oc2ccccc2)cc1 [Compound 207] | 2.31 µM | 6.16 nM | –
